Experimental data published in patent US10660877B2 (BRISTOL-MYERS SQUIBB COMPANY, priority 2016, dated 2020).
Where two headings read alike, the source gives them in different places.

How the values were obtained:
[1] = target: human TLR9 (Homo sapiens (Human), UniProt Q9NR96); assay: TLR9 inhibition reporter assay (HEK-Blue cells, SEAP reporter, ODN2006 stimulation);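 further: compounds tested over 0.05 nM to 50 µM, 22 h incubation, inhibition taken as SEAP signal drop from agonist plus DMSO wells toward a known inhibitor control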
Sequence of human TLR9 (Q9NR96 26-1032): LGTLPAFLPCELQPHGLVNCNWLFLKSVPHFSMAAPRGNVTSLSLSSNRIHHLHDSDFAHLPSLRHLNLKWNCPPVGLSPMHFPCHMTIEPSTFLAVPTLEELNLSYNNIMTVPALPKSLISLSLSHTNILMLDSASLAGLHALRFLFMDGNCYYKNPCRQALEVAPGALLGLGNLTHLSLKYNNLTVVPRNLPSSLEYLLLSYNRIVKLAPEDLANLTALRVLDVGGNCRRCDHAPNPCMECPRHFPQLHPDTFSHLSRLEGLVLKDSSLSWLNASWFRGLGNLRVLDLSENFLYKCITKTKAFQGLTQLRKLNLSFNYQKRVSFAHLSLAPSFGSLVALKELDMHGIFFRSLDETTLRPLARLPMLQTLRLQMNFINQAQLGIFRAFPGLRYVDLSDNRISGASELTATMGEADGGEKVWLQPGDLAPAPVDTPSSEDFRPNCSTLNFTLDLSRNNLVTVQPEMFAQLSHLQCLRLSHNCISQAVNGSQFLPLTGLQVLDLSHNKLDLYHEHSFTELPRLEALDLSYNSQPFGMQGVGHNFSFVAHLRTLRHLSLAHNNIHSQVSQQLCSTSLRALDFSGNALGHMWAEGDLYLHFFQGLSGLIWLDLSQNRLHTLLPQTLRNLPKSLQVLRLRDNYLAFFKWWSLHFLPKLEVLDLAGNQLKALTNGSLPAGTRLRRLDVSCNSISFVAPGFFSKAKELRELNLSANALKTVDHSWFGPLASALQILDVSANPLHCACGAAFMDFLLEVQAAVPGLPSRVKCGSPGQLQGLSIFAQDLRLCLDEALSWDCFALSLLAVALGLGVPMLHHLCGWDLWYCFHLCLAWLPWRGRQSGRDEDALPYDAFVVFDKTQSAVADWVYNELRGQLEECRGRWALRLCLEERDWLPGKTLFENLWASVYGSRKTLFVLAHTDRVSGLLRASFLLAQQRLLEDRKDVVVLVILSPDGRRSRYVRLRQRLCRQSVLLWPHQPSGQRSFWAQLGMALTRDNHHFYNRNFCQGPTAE
Description: TLR7/8/9 Inhibition Reporter Assays
Briefly, cells are seeded into Greiner 384 well plates (15000 cells per well for TLR7, 20,000 for TLR8 and 25,000 for TLR9) and then treated with test compounds in DMSO to yield a final dose response concentration range of 0.05 nM-50 μM. […] After a 22 hour incubation at 37° C., 5% CO2, SEAP levels are determined with the addition of HEK-Blue™ Detection reagent (Invivogen), a cell culture medium that allows for detection of SEAP, according to manufacturer's specifications. The percent inhibition is determined as the % reduction in the HEK-Blue signal present in wells treated with agonist plus DMSO alone compared to wells treated with a known inhibitor.

[2] = target: human TLR7 (Homo sapiens (Human), UniProt Q9NYK1); assay: TLR7 inhibition reporter assay (HEK-Blue cells, SEAP reporter, gardiquimod stimulation); format: cell-based
Sequence of human TLR7 (Q9NYK1 27-1049): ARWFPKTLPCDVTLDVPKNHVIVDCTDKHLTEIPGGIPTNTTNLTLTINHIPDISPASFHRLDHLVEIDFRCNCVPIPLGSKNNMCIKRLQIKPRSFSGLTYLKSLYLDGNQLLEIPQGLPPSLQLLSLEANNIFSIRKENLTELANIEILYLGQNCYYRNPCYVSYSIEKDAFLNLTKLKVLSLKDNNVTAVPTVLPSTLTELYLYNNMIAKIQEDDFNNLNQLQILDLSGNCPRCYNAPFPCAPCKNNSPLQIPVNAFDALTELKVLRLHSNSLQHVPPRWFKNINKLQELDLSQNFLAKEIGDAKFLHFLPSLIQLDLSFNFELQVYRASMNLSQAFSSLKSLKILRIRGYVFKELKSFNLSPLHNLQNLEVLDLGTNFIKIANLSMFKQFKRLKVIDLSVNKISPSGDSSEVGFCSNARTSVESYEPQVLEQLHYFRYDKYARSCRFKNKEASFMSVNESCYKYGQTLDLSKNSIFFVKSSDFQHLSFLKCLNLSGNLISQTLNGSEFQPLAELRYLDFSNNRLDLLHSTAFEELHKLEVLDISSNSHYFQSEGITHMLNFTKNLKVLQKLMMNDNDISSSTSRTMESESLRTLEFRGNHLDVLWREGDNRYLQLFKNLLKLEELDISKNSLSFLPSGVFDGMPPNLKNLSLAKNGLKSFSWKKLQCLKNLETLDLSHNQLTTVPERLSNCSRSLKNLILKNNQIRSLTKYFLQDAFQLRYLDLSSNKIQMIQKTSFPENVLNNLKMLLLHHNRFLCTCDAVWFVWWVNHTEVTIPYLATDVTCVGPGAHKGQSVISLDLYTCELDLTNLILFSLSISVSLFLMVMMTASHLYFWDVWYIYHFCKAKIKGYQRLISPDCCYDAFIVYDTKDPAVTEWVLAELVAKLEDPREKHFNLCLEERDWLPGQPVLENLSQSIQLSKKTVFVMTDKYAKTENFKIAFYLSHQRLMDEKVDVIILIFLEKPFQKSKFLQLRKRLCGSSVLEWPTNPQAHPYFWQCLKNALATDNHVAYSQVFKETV

[3] = target: human TLR8 (Homo sapiens (Human), UniProt Q9NR97); assay: TLR8 inhibition reporter assay (HEK-Blue cells, SEAP reporter, R848 stimulation);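 further: compounds tested from 0.05 nM to 50 µM, 22 h at 37 °C, SEAP measured with HEK-Blue Detection, inhibition relative to agonist plus DMSO versus a known inhibitor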
Sequence of human TLR8 (Q9NR97 27-1041): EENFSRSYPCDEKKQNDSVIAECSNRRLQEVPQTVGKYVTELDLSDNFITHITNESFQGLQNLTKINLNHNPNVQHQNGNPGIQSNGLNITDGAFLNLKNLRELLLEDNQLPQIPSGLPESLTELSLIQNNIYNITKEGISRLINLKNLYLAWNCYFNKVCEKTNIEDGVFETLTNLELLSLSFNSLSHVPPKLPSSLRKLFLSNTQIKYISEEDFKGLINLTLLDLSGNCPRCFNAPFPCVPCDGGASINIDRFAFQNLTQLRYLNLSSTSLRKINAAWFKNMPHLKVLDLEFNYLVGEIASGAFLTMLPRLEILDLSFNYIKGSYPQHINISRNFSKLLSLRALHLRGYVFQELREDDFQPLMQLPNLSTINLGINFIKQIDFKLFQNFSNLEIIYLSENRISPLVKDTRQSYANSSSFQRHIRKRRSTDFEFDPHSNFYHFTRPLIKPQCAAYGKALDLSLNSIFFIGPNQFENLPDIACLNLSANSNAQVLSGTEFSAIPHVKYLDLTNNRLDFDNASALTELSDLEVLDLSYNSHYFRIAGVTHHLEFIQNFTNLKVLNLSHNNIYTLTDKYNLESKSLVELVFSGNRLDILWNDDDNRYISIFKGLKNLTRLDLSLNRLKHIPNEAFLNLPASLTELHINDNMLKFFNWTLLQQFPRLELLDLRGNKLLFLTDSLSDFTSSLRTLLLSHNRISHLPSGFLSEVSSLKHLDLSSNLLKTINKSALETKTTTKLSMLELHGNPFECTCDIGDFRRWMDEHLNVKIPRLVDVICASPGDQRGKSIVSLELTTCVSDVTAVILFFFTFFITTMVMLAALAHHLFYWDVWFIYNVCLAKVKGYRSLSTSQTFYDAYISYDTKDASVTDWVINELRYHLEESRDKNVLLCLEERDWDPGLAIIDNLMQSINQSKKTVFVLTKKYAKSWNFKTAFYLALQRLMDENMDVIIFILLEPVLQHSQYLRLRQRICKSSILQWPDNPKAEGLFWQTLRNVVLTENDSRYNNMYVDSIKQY

[4] = read-out: TLR9 IC50, HEK-Blue cells overexpressing human TLR9, ODN2006 5 nM
[5] = HEK-Blue cells overexpressing human TLR7, gardiquimod 7.5 μM
[6] = read-out: TLR8 IC50, HEK-Blue cells overexpressing human TLR8, R848 15.9 μM
[7] = TLR9 IC50, HEK-Blue cells overexpressing human TLR9, ODN2006 5 nM
[8] = TLR8 IC50, HEK-Blue cells overexpressing human TLR8, R848 15.9 μM
[9] = HEK-Blue cells, gardiquimod 7.5 μM
[10] = read-out: TLR8 IC50, HEK-Blue cells, R848 15.9 μM

| IC50 [1, 4] [µM] | IC50 [2, 5] [µM] | IC50 [3, 6] [µM] | SMILES | other results |
| --- | --- | --- | --- | --- |
| > 50 | 0.441 | 1.07 | Cc1ccc(S(=O)(=O)N2CCC(c3ccc4[nH]c(-c5ccnc(C)c5)c(C(C)C)c4c3)CC2)cc1 [Example 554] | – |
| 3.72 | 0.0156 | 0.0529 | Cc1cc(-c2[nH]c3ccc(C4CCN(CC(F)F)CC4)cc3c2C(C)C)cc(C)n1 [Example 327, 5-(1-(2,2-difluoroethyl)piperidin-4-yl)-2-(2,6-dimethylpyridin-4-yl)-3-isopropyl-1H-indole] | – |
| 0.032 | 0.0362 | 0.0533 | Cc1cc(-c2[nH]c3ccc(C4CCN(Cc5c[nH]cn5)CC4)cc3c2CC(F)F)cc(C)n1 [Example 537, 5-(1-((1H-imidazol-4-yl)methyl)piperidin-4-yl)-3-(2,2-difluoroethyl)-2-(2,6-dimethylpyridin-4-yl)-1H-indole] | – |
| 0.9 | 0.0022 | 0.0098 | COCCN(C)CC(=O)N1CCC(c2ccc3[nH]c(-c4cc(C)nc(C)c4)c(C(C)C)c3c2)CC1 [Example 148, 1-(4-(2-(2,6-dimethylpyridin-4-yl)-3-isopropyl-1H-indol-5-yl)piperidin-1-yl)-2-((2-methoxyethyl)(methyl)amino)ethan-1-one] | – |
| 0.563 | 0.154 | 0.0139 | COc1cc(-c2[nH]c3ccc(C4CCN(C5CCN(CC6CC6)CC5)CC4)cc3c2C(C)C)ccn1 [Example 796, 5-(1′-(cyclopropylmethyl)-[1,4′-bipiperidin]-4-yl)-3-isopropyl-2-(2-methoxypyridin-4-yl)-1H-indole] | – |
| 1.06 | 0.013 | 0.0117 | Cc1cc(-c2[nH]c3ccc(C4CCN(CC(=O)N(C)C)CC4)cc3c2C(C)C)ccn1 [Example 512, 2-(4-(3-isopropyl-2-(2-methylpyridin-4-yl)-1H-indol-5-yl)piperidin-1-yl)-N,N-dimethylacetamide] | – |
| 1.13 | 0.0086 | 0.0101 | COCCNC(=O)CN1CCC(c2ccc3[nH]c(-c4cc(C)nc(C)c4)c(C(C)C)c3c2)CC1 [Example 231, 2-(4-(2-(2,6-dimethylpyridin-4-yl)-3-isopropyl-1H-indol-5-yl)piperidin-1-yl)-N-(2-methoxyethyl)acetamide] | – |
| 0.949 | 0.0049 | 0.0105 | Cc1cc(-c2[nH]c3ccc(C4CCN(CC(=O)NC(C)C)CC4)cc3c2C(C)C)cc(C)n1 [Example 218, 2-(4-(2-(2,6-dimethylpyridin-4-yl)-3-isopropyl-1H-indol-5-yl)piperidin-1-yl)-N-isopropylacetamide] | – |
| 0.144 | – | 12.5 | COC(=O)c1c(-c2cc(C)nc(C)c2)[nH]c2ccc(C3CCNCC3)cc12 [Example 495, methyl 2-(2,6-dimethylpyridin-4-yl)-5-(piperidin-4-yl)-1H-indole-3-carboxylate] | – |
| – | 0.0793 | 0.102 | COCCC(=O)N1CCC(c2ccc3[nH]c(-c4ccnc(C)c4)c(C(C)C)c3c2)CC1 [Example 571, 1-(4-(3-isopropyl-2-(2-methylpyridin-4-yl)-1H-indol-5-yl)piperidin-1-yl)-3-methoxypropan-1-one] | – |
| 0.154 | – | 0.0072 | Cc1cc(-c2[nH]c3ccc(C4CCN(C(=O)[C@@]5(C)CCCN5)CC4)cc3c2C(C)C)cc(C)n1 [Example 192, (R)-(4-(2-(2,6-dimethylpyridin-4-yl)-3-isopropyl-1H-indol-5-yl)piperidin-1-yl)(2-methylpyrrolidin-2-yl)methanone] | – |
| – | 0.0138 | 0.0096 | Cc1cc(-c2[nH]c3ccc(C4CCN(Cc5ncn(C)n5)CC4)cc3c2C(C)C)c(F)cn1 [Example 724, 2-(5-fluoro-2-methylpyridin-4-yl)-3-isopropyl-5-(1-((1-methyl-1H-1,2,4-triazol-3-yl)methyl)piperidin-4-yl)-1H-indole] | – |
| 25 | – | 0.172 | Cc1cc(-c2[nH]c3ccc(C4CCN(C(=O)CCn5ccc(C)n5)CC4)cc3c2C(C)C)cc(C)n1 [Example 143, 1-(4-(2-(2,6-dimethylpyridin-4-yl)-3-isopropyl-1H-indol-5-yl)piperidin-1-yl)-3-(3-methyl-1H-pyrazol-1-yl)propan-1-one] | – |
| 39.9 | – | 0.327 | Cc1cc(-c2[nH]c3ccc(C4CCN(C(=O)C(C)C)CC4)cc3c2C(C)C)cc(C)n1 [Example 202, 1-(4-(2-(2,6-dimethylpyridin-4-yl)-3-isopropyl-1H-indol-5-yl)piperidin-1-yl)-2-methylpropan-1-one] | – |
| 0.628 | – | 0.0209 | Cc1cc(-c2[nH]c3ccc(C4CCN(C(=O)CN5CCC(C)CC5)CC4)cc3c2C(C)C)cc(C)n1 [Example 376, 1-(4-(2-(2,6-dimethylpyridin-4-yl)-3-isopropyl-1H-indol-5-yl)piperidin-1-yl)-2-(4-methylpiperidin-1-yl)ethan-1-one] | – |
| > 50 | – | 0.107 | Cc1cc(-c2[nH]c3ccc(C4CCN(C(=O)C5CC(=O)N(C)C5)CC4)cc3c2C(C)C)ccn1 (centres unmarked) [Example 618, 4-(4-(3-isopropyl-2-(2-methylpyridin-4-yl)-1H-indol-5-yl)piperidine-1-carbonyl)-1-methylpyrrolidin-2-one] | – |
| > 50 | – | 0.0798 | COCCC(=O)N1CCC(c2ccc3[nH]c(-c4cc(C)nc(C)c4)c(C(C)C)c3c2)CC1 [Example 118, 1-(4-(2-(2,6-dimethylpyridin-4-yl)-3-isopropyl-1H-indol-5-yl)piperidin-1-yl)-3-methoxypropan-1-one] | – |
| – | 0.0076 | 0.107 | Cc1cc(-c2[nH]c3ccc(C4CCN(C(=O)c5ccc(C)n(C)c5=O)CC4)cc3c2C(C)C)cc(C)n1 [Example 138, 3-(4-(2-(2,6-dimethylpyridin-4-yl)-3-isopropyl-1H-indol-5-yl)piperidine-1-carbonyl)-1,6-dimethylpyridin-2(1H)-one] | – |
| – | – | – | Cc1cc(-c2[nH]c3ccc(C4CCN(CC(=O)N(C)C5CCOCC5)CC4)cc3c2C(C)C)cc(C)n1 [Example 287, 2-(4-(2-(2,6-dimethylpyridin-4-yl)-3-isopropyl-1H-indol-5-yl)piperidin-1-yl)-N-methyl-N-(tetrahydro-2H-pyran-4-yl)acetamide] | IC50 [1, 7]: 0.328 µM; IC50 [3, 8]: 0.022 µM |
| – | 0.009 | – | COCCN(C)C(=O)CN1CCC(c2ccc3[nH]c(-c4cc(C)nc(C)c4)c(C(C)C)c3c2)CC1 [Example 254, 2-(4-(2-(2,6-dimethylpyridin-4-yl)-3-isopropyl-1H-indol-5-yl)piperidin-1-yl)-N-(2-methoxyethyl)-N-methylacetamide] | IC50 [3, 8]: 0.0176 µM |
| – | – | – | Cc1cc(-c2[nH]c3ccc(C4CCN(c5cccnc5)CC4)cc3c2C(C)C)ccn1 [Example 847, 3-isopropyl-2-(2-methylpyridin-4-yl)-5-(1-(pyridin-3-yl)piperidin-4-yl)-1H-indole] | IC50 [2, 9]: 0.0619 µM; IC50 [3, 10]: 0.206 µM |
| – | 0.0999 | – | Cc1nccc(-c2[nH]c3ccc(C4CCN(Cc5cnc[nH]5)CC4)cc3c2C(C)C)c1N [Example 745, 4-(5-(1-((1H-imidazol-5-yl)methyl)piperidin-4-yl)-3-isopropyl-1H-indol-2-yl)-2-methylpyridin-3-amine] | IC50 [3, 8]: 0.13 µM |
| – | 0.0059 | 0.0786 | Cc1cc(-c2[nH]c3ccc(C4CCN(C(=O)c5cccnc5)CC4)cc3c2C(C)C)cc(C)n1 [Example 113, (4-(2-(2,6-dimethylpyridin-4-yl)-3-isopropyl-1H-indol-5-yl)piperidin-1-yl)(pyridin-3-yl)methanone] | – |
| – | 0.0067 | 0.0444 | Cc1cc(-c2[nH]c3ccc(C4CCN(C(=O)CC5C(=O)N(C)C(=O)N5C)CC4)cc3c2C(C)C)cc(C)n1 (centres unmarked) [Example 122, 5-(2-(4-(2-(2,6-dimethylpyridin-4-yl)-3-isopropyl-1H-indol-5-yl)piperidin-1-yl)-2-oxoethyl)-1,3-dimethylimidazolidine-2,4-dione] | – |
| 2.15 | 0.0384 | – | CC(C)c1c(-c2ccncc2)[nH]c2ccc(C3CCNCC3)cc12 [Example 38, 3-isopropyl-5-(piperidin-4-yl)-2-(pyridin-4-yl)-1H-indole] | – |
| – | – | – | Cc1cc(-c2[nH]c3cc(F)c(C4CCN(C5COC5)CC4)cc3c2C(C)C)cc(C)n1 [Example 834, 2-(2,6-dimethylpyridin-4-yl)-6-fluoro-3-isopropyl-5-(1-(oxetan-3-yl)piperidin-4-yl)-1H-indole] | IC50 [2, 9]: 0.0044 µM; IC50 [3, 10]: 0.0238 µM |
| – | – | – | Cc1cc(-c2[nH]c3ccc(C4CCN(C(=O)C5CCNC5)CC4)cc3c2C(C)C)cc(C)n1 (centres unmarked) [Example 186, (4-(2-(2,6-dimethylpyridin-4-yl)-3-isopropyl-1H-indol-5-yl)piperidin-1-yl)(pyrrolidin-3-yl) methanone] | IC50 [1, 7]: 0.516 µM; IC50 [3, 8]: 0.0222 µM |
| 0.228 | – | 0.0148 | Cc1cc(-c2[nH]c3ccc(C4CCN(C(=O)C[C@H]5CCCN5)CC4)cc3c2C(C)C)cc(C)n1 [Example 193, (R)-1-(4-(2-(2,6-dimethylpyridin-4-yl)-3-isopropyl-1H-indol-5-yl)piperidin-1-yl)-2-(pyrrolidin-2-yl)ethan-1-one] | – |
| 47.4 | – | 0.0904 | Cc1cc(-c2[nH]c3ccc(C4CCN(C(=O)C5(C)COC5)CC4)cc3c2C(C)C)cc(C)n1 [Example 207, (4-(2-(2,6-dimethylpyridin-4-yl)-3-isopropyl-1H-indol-5-yl)piperidin-1-yl)(3-methyloxetan-3-yl)methanone] | – |
| 0.095 | 0.495 | – | CCc1cc(-c2[nH]c3ccc(C4CCN(CCNC)CC4)cc3c2C)ccn1 [Example 748, 2-(4-(2-(2-ethylpyridin-4-yl)-3-methyl-1H-indol-5-yl)piperidin-1-yl)-N-methylethan-1-amine] | – |
